The METLIN SMRT retention time set (Domingo-Almenara et al. 2019)

assay: gradient 5% acetonitrile 3 min, to 50% in 2 min, to 85% in 15 min, held 3 min, 100 µL/min; details: column: Zorbax Extend-C18 2.1 x 50 mm; eluents: water / acetonitrile, 0.1% formic acid
Outline: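 In both positive and negative ionization mode, a quadrupole time-of-flight mass spectrometer coupled to HPLC analyzed pure standards run in mixtures of ~100 molecules. The Zorbax Extend-C18 column (2.1 × 50 mm, 1.8 μm) was operated at 100 μL/min with water and acetonitrile, each containing 0.1% formic acid. The dead volume was 40 μL and the dwell volume 900 μL. Retention time came from adduct peaks that were computationally picked and individually inspected by hand.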

Structure (SMILES) | RP-LC retention time
Cc1ccc(Oc2ccc(NS(=O)(=O)c3ccc(F)cc3F)cc2)nn1 | 720 s
N#Cc1ccc(-c2nc(-c3cccc(-c4ccn[nH]4)c3)no2)cc1 | 917 s
CCCN(C(=O)c1ccccc1)c1nc(-c2ccccc2)cs1 | 1310 s
Cc1ccc2nc(-c3ccccc3F)c(Nc3ccc(Cl)cc3)n2c1 | 754 s
Cc1ccc(CNC(=O)CCNc2c(-c3cccc(F)c3)nc3cnccn23)o1 | 700 s
O=C(NCc1ccc(F)cc1)C1=C2CCCN2c2ccc(F)cc2S1(=O)=O | 864 s
COc1ccc(Cl)cc1NC(=O)CSc1nnc(-c2ccco2)n1-n1cccc1 | 885 s
Cc1ccc(C(=O)N(C)Cc2cccnc2Oc2ccccc2)cn1 | 861 s
Cc1nc2cc(N3CCCC(C(=O)O)C3)cnc2nc1C (stereo not given) | 604 s
O=C(Cc1ccc(Br)cc1)Nc1cc(-c2ccsc2)no1 | 983 s
Cc1ccc(CNC(=O)CCCN2C(=O)CCn3nc(-c4cccn4C)cc32)cc1 | 795 s
CCn1ccc2c(cc(C(=O)Nc3cc(F)ccc3F)n2C)c1=O | 754 s
O=c1c(NCCc2ccc(Cl)cc2)nccn1-c1ccc2c(c1)OCO2 | 870 s
O=C(NCc1ccco1)C1CCN(c2nc3ccc(-c4cncnc4)nc3s2)CC1 | 743 s
COc1ccc(NS(=O)(=O)c2cn(C(C)C)c3ncccc23)cc1OC | 876 s
CC(C)N1C(=O)c2cccnc2Sc2cc(NC(=O)c3ccc(F)cc3)ccc21 | 896 s
O=C1COc2ccccc2N1Cc1nc(-c2ccc(F)cc2)no1 | 984 s
COCCCNC(=O)Cn1nc(C)c2sc(-c3ccccc3)nc2c1=O | 706 s
COc1ccccc1N1CCN(CCN2C(=O)N=C3C(=Nc4ccccc43)C2=O)CC1 | 705 s
O=C(NCc1ccccn1)c1cccc(N2CCNC(c3ccccc3)C2)n1 (stereo not given) | 564 s
CC1(C)CC(=O)c2cn(-c3ccc(F)cc3)c(=O)c(C(=O)Nc3ccc4c(c3)OCCO4)c2C1 | 1000 s

Now from value to compound:

RP-LC retention time | Structure (SMILES)
598 s | CCCCN1CC(c2nc3ccccc3n2CC(=O)N2CCOCC2)CC1=O (stereo not given)
561 s | COc1ccccc1-c1[nH]ncc1CN1CCC2(CC1)CC(O)CCO2 (stereo not given)
653 s | c1ccc(-c2nc(-c3cnccn3)no2)c(OC2CCN(C3CCSCC3)C2)c1 (stereo not given)
845 s | Cc1cc(Cl)ccc1S(=O)(=O)N1CCCC1c1nncn1-c1ccccc1 (stereo not given)
731 s | Cc1cccc(NC(=O)CN2C(=O)C3CCCN3C(=O)c3ccc(F)cc32)c1C (stereo not given)
648 s | O=C(CN1CCN(Cc2cccc(Cl)c2)C1=O)N1CCN(C2CCCCC2)CC1
755 s | COCc1cc(=O)n(CC(=O)Nc2ccc(OC)cc2)c(N2CCOCC2)n1
731 s | CC(=O)N1CCC(C(=O)Nc2nc(C(C)(C)C)cs2)CC1
806 s | CN(c1cccc(NC(=O)C2CCN(S(=O)(=O)Cc3ccccc3)CC2)c1)S(C)(=O)=O
710 s | COCCC1CCOC2(CCN(C(=O)C3CC3)CC2)C1 (stereo not given)
678 s | O=C1CCCC(=O)N1CCS(=O)(=O)NCC1(c2ccccc2)CCOCC1
591 s | CC(C)NC(=O)N1Cc2ccccc2OC2(CCN(C)CC2)C1
743 s | CSc1cccc(NC(=O)N(C)CC2CCOCC2)c1
882 s | CC(C)C(NC(=O)c1cccc(CN2C(=O)C3CCCN3C(=O)c3ccccc32)c1)c1cccs1 (stereo not given)
754 s | CC1(C(=O)NCc2ccc3c(c2)OCO3)CCN(C(=O)c2ccc(C#N)cc2)CC1
721 s | COc1cccc(CNC(=O)C2CCCN2S(=O)(=O)c2cc3c(cc2C)NC(=O)CO3)c1 (stereo not given)
638 s | COc1cc(Cl)ccc1C(=O)N1CCN(c2nc3ccncc3n(C)c2=O)CC1
1250 s | Cc1cc(NC(=O)c2c(O)c3cccnc3n(-c3ccc(F)cc3)c2=O)ccc1F
648 s | O=C(c1cn2c(n1)CCCC2)N1CCN(c2ccc(Cl)cc2)CC1
690 s | CC(=O)Nc1ccc2c(c1)CN(C(=O)c1cccc(Cl)c1)C(C(=O)N1CCCC1)C2 (stereo not given)
831 s | CS(=O)(=O)N1CCC(OC2CCN(C(=O)Nc3cccc(Cl)c3)CC2)CC1
696 s | CCC(=O)N1CCc2cc(N3CC(C(=O)Nc4cccc(C(C)=O)c4)CC3=O)ccc21 (stereo not given)
644 s | CS(=O)(=O)N1CCOc2ccc(CCC(=O)NC3CCS(=O)(=O)C3)cc2C1 (stereo not given)
683 s | COc1ccc(-c2onc(C)c2C)cc1S(=O)(=O)N1CCN(c2ccccn2)CC1
